Square brackets hold non-standard residues; d marks the D form. Peptide text beside a SMILES is read from it. * marks the point of attachment. PhAc = O=C(Cc1ccccc1)*
Assays:
[1] = system: Porcine peripheral blood lymphocytes; assay: In vitro porcine allograft model: transendothelial lymphocyte migration; assay type: cell-based; conditions: 10 μg/ml in the medium; IL-1β-stimulated SMC
Method: A similar study was carried out in vitro using porcine coronary artery endothelial cells (EC; as are present in the IEL) and smooth muscle cells (SMC; as are present in the medial layer of the artery). The two cell types were cultured using a membrane transwell system, with the SMC on the bottom layer in M-199 medium (Gibco Labs.). The SMC were stimulated with 100 ng/ml of interleukin-1β (IL-1β) for 24 hours prior to the start of the assay. Porcine peripheral blood lymphocytes were separated by Ficoll-Hypaque, radiolabeled and incubated overnight (about 18 hours) on the EC.

BALB/c mice = assay: Adoptive transfer delayed type hypersensitivity in mice (oxazolone); assay type: in vivo, mouse; conditions: initial study; 6 mg/kg/day s.c. pump, 24-hour; FIG. 5
Method: An adoptive transfer delayed-type hypersensitivity murine model has been developed using splenic T cells primed to oxazolone. This model is described in Elices et al., Clin. Exp. Rheum., 11(Suppl. 8):577-580 (1993), whose procedures were followed here.
Thus, BALB/c mice were shaved on the belly and painted (50 μl on the belly and 5 μl on each paw) with three percent oxazolone in acetone/olive oil (4:1) at days zero and 1. At day 5, the mice were sacrificed, their spleens removed, and splenic T cells were obtained via nylon wool columns.
Normal saline or saline containing 25×10^6 /animal of the oxazolone-immune T cells were separately injected into naive mice. The mice were then challenged by painting 10 μl of 2 percent oxazolone onto one ear each. All procedures were carried out under sterile conditions and in endotoxin-free buffers.
Prior to challenge or saline injection, the mice were implanted with pumps that subcutaneously administered normal saline, normal saline containing the compound, Compound ID No. 896.52, N-phenylacetyl-Leu-Asp-Phe-D-Pro-NH2, or normal saline containing a compound with a scrambled sequence continually at 6 mg/kg/day for a 24-hour time period. The swelling diameter at the site of challenge or saline injection was measured with a microcaliper 24 hours thereafter.
An expanded study was carried out as described above except that a scrambled compound control was not used as a control for further inhibitor compounds of Table 1 with larger groups of mice. Statistical analyses were carried out versus injection of vehicle alone.

asthmatic sheep = assay: Treatment of asthmatic sheep (Ascaris suum antigen, crossover); assay type: in vivo; conditions: nebulized 1 mg/kg; FIG. 7
Method: Six asthmatic sheep were treated in a double blind cross-over study. […] This study was carried out generally as described in Abraham et al., J. Clin. Invest., 93:776-787 (1994).
The inhibitor compound used here was Compound ID No. 896.52, N-phenylacetyl-Leu-Asp-Phe-D-Pro-NH2, with a control compound that comprised the previously described compound having the same residues in a scrambled sequence. The vehicle for the nebulized compounds was phosphate-buffered saline. The compounds were administered at a dose of 1 mg/kg each, twice a day for three days prior to challenge, as well as 0.5 hours prior to and four hours post challenge on day 4. Because this was a crossover study, each animal received one or the other treatment, followed by a rest and then the other treatment. Each animal therefore served as its own control.
Post challenge airway responsiveness was also assayed. Here, specific lung resistance, SRL, returned to baseline values 24 hours after challenge, however, the sheep were hyperresponsive to inhaled carbachol at that time.

Compound: CC(C)C[C@H](NC(=O)[C@H](CC(=O)O)NC(=O)Cc1ccccc1)C(=O)N[C@@H](Cc1ccccc1)C(=O)N1CCC[C@@H]1C(N)=O [N-phenylacetyl-Asp-Leu-Phe-D-Pro-NH2, reference compound] (PhAc-DLF[dP]-NH2)
- reduction of transendothelial lymphocyte migration [1]: did not reduce migration
- reduction of inflammation (swelling diameter at challenge site) (BALB/c mice): no reduction of inflammation
- change from baseline specific lung resistance (SRL) on challenge (asthmatic sheep): had an increase in that pulmonary function (SRL)
